Assay results reported in US20100022551A1, “TRIMETAZIDINE FOR USE IN THE TREATMENT OF FIBROMYALGIA SYNDROME AND RELATED CONDITIONS” (Mintals Limited Consulco, Consulco House, priority 2006, published 2010).
“And” between values parts separate entries of the source, which are not always exact repeats. Equal values may be shown once. “Also recorded” adds a separate entry of the source.

Assays:
[1] = tested on: Human Subject Diagnosed with Fibromyalgia; assay: Patient history of prior treatment of the fibromyalgia subjects; conditions: for pain relief, prescription analgesics / side effects, prescription analgesics: Examples 1-3, codeine at high dose; for pain relief, OTC analgesics: Examples 1-3, codeine at low dose
Text: (§1) Patient History of Prior Treatment: A patient history was taken. Prior treatments targeting pain relief were as follows.
Prior treatments targeting other symptoms included the following. The subject had taken tegaserod for irritable bowel syndrome. Additional prior therapies included sertraline for depression, and zolpidem for insomnia. The subject has also taken proclorperazine for dizziness.
Prior treatments targeting other symptoms included the following. The subject had taken tegaserod for irritable bowel syndrome. Additional prior therapies included sertraline for depression, and zolpidem for insomnia.
as §1
Prior treatments targeting other symptoms included the following. The subject had taken tegaserod for irritable bowel syndrome. Additional prior therapies included zolpidem, midazolam, zopiclone, and chlorpheniramine for insomnia.

[2] = tested on: pyruvate dehydrogenase; conditions: Kantor et al., Circ. Res. 2000; cited from earlier work
[3] = tested on: glucose oxidation; conditions: Kantor et al., Circ. Res. 2000; cited from earlier work
[4] = biological target: long chain 3-ketoacyl CoA thiolase (Rattus norvegicus, UniProt Q60587); conditions: Kantor et al., Circ. Res. 2000; cited from earlier work
Chain of long chain 3-ketoacyl CoA thiolase (Q60587 35-475): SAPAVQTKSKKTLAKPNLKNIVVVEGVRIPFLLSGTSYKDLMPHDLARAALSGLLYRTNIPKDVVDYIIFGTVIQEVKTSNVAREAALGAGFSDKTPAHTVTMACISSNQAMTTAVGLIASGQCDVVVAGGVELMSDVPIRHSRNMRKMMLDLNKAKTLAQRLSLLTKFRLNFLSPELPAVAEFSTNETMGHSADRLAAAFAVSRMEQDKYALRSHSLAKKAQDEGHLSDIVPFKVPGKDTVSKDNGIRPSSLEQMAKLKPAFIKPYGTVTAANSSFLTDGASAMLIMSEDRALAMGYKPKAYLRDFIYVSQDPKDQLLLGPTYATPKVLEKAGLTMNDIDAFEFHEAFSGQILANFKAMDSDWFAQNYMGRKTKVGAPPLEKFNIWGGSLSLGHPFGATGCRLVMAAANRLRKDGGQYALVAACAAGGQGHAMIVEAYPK
Chain of long chain 3-ketoacyl CoA thiolase (Q64428 37-763 partner): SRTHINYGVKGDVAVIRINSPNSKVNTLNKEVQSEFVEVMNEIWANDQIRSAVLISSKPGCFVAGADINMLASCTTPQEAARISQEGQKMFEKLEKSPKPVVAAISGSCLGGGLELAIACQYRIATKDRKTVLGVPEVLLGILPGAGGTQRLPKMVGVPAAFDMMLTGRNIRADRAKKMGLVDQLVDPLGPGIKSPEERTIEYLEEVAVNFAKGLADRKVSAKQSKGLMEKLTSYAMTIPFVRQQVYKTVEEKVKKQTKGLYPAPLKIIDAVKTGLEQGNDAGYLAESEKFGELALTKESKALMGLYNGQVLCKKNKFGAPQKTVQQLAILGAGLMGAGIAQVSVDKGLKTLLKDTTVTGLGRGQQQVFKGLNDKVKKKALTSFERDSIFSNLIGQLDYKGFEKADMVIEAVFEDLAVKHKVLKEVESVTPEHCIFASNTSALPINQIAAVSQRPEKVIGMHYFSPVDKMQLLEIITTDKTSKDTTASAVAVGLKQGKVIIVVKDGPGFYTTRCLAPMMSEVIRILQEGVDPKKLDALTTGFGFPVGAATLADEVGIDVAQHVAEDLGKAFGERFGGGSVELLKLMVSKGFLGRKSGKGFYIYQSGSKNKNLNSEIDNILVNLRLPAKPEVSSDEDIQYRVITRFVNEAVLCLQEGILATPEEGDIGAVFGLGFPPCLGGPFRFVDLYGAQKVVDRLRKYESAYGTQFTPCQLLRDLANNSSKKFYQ

[5] = tested on: long-chain fatty acid oxidation; conditions: Kantor et al., Circ. Res. 2000; cited from earlier work
[6] = tested on: Human Subject Diagnosed with Fibromyalgia; assay: Treatment of human subjects diagnosed with fibromyalgia with trimetazidine (Vastarel MR 35 mg orally, twice daily); type: in vivo; conditions: for reduction in the widespread pain: subject-reported
Procedure: A person presented with long-standing complaints (15 years) of widespread pain—headaches, upper and lower back pain, neck pain, elbow and knee pain bilaterally, calf pain bilaterally and jaw pain. General non-specific symptoms were fatigue, symptoms of irritable bowel syndrome (constipation-type), insomnia, cognitive and memory impairment, morning stiffness, dizziness, irritability and depression.
Treatment Regime: The subject was administered trimetazidine (modified release formulation, Vastarel® MR), 35 mg orally, twice daily, originally for treatment of their cardiac condition.
A person presented with long-standing complaints (10 years) of widespread pain—headaches, upper and lower back pain, neck pain, hip pain bilaterally, knee pain bilaterally and jaw pain. General non-specific symptoms were fatigue, symptoms of irritable bowel syndrome (constipation-type), insomnia, cognitive and memory impairment, morning stiffness, and depression.
Treatment Regime: The subject was administered trimetazidine (modified release formulation, Vastarel® MR), 35 mg orally, twice daily.
A person presented with a 5 year history of complaints of widespread pain headaches, upper and lower back pain, neck pain, hip pain bilaterally and knee pain bilaterally. General non-specific symptoms were fatigue, symptoms of irritable bowel syndrome (constipation-type), insomnia, morning stiffness and emotional liability.
The following is a synopsis of the clinical response of each of eight (8) patients diagnosed with FMS, each of whom received treatment with trimetazidine MR (Vastarel® MR), 35 mg orally, twice daily, for a period of at least four (4) weeks

[7] = Example 1, after six (6) months of continuous use
[8] = Example 4, individual FMS patients, Short Term i.e. within 72 hours
[9] = Example 4, individual patients, Medium Term i.e. over four (4) weeks
[10] = Example 4, individual patients, within 72 hours
[11] = Example 4, person five, within 72 hours
[12] = Example 4, person four, within 72 hours
[13] = Example 4, person one, within 72 hours
[14] = Examples 2 and 3, after four (4) months of continuous use
[15] = Examples 2 and 3, within 24 hours

COc1ccc2c3c1O[C@H]1[C@@H](O)C=C[C@H]4[C@@H](C2)N(C)CC[C@@]341 [codeine]
pain relief, prescription analgesics [1]: mild to moderate and very temporary relief
side effects, prescription analgesics [1]: frequently accompanied by unpleasant side effects
pain relief, OTC analgesics [1]: no pain relief whatsoever; also recorded: negligible pain relief

CCN(CC)CC(=O)Nc1c(C)cccc1C [lidocaine]
localized pain relief, trigger point injections ([1]; Examples 1 and 2): the best localized pain relief

CCOC(=O)C1(c2ccccc2)CCN(C)CC1 [meperidine]
pain relief, prescription analgesics [1]: mild to moderate and very temporary relief
side effects, prescription analgesics [1]: frequently accompanied by unpleasant side effects

CC(=O)Nc1ccc(O)cc1 [paracetamol]
pain relief, OTC analgesics [1]: no pain relief whatsoever; also recorded: negligible pain relief

COc1cccc(C2(O)CCCCC2CN(C)C)c1 (centres unmarked) [tramadol]
pain relief, prescription analgesics [1]: mild to moderate and very temporary relief
side effects, prescription analgesics [1]: frequently accompanied by unpleasant side effects

COc1ccc(CN2CCNCC2)c(OC)c1OC [trimetazidine, 1-(2,3,4-trimethyloxybenzyl)piperazine]
levels of pyruvate dehydrogenase [2]: increased levels
glucose oxidation [3]: stimulates
activity of long chain 3-ketoacyl CoA thiolase [4]: decreased activity
long-chain fatty acid oxidation [5]: inhibits
time at which benefits were first noticed after commencing therapy ([6]; Example 1, person, 35 mg orally twice daily): ≤ 24 h
improvement in all symptoms and signs of fibromyalgia ([6]; Example 1, person, 35 mg orally twice daily, within 72 hours of starting treatment): vast improvement
reduction in the widespread pain ([6]; Example 1, person, within 72 hours): 90%
episodes of pain at trigger points at follow-up [6, 7]: infrequent
quality of life at follow-up [6, 7]: same marked improvement
clarity of thoughts ([6]; Example 1, within 72 hours): markedly increased
energy levels ([6]; Example 1, within 72 hours): very significantly increased
level of irritability ([6]; Example 1, within 72 hours): markedly reduced
mood ([6]; Example 1, within 72 hours): very improved
regularity of bowel habits ([6]; Example 1, within 72 hours): markedly improved
residual pain ([6]; Example 1, within 72 hours): minimal residual pain reported at the left medial knee
short and long term memory ([6]; Example 1, within 72 hours): improvement
sleep patterns ([6]; Example 1, within 72 hours): very significantly improved
clarity of thoughts ([6]; Example 2, within 24 hours): markedly increased
short and long term memory ([6]; Example 2, within 24 hours): improvement
reduction in widespread pain [6, 8]: 90% reduction in
reduction in widespread pain and trigger point pain [6, 8]: 90% reduction in
affect (EXAMINATION FINDINGS; patient: affect and energy levels) ([6]; Example 4, individual patients): markedly improved
resolution of trigger point tenderness (EXAMINATION FINDINGS) ([6]; Example 4, individual patients): Sustained
Residual symptoms [6, 9]: include mild acid; also recorded: infrequent headaches; also recorded: insomnia; also recorded: episodes of joint
sense of well-being [6, 9]: increased sense of
specific complaints [6, 9]: symptoms with no
Energetic feeling [6, 10]: Energetic feeling
Nausea (patient: Nausea and Vomiting) [6, 10]: Absence of Nausea
alertness and clarity of thinking [6, 10]: Increased alertness
dizziness/dizzy spells [6, 10]: Infrequent dizzy; also recorded: Absence of
improved mood and concentration [6, 10]: Significantly
improved mood and memory [6, 10]: Significantly
reduction in feeling of generalized tightness and stiffness of muscles [6, 10]: 90% reduction in (2×) and 90% reduction of
sleep [6, 10]: Consistent restful
improved energy levels (EXAMINATION FINDINGS) ([6]; Example 4, person five): Markedly
reduction in irritability [6, 11]: 90% reduction in
reduction in symptoms of Irritable Bowel Syndrome [6, 11]: 90% reduction in
Memory [6, 12]: Improved Memory
Nervousness [6, 12]: No Nervousness
improvement in physical appearance (EXAMINATION FINDINGS) ([6]; Example 4, person one): obvious marked
increase in energy levels ([6]; Example 4, person one, after four (4) weeks of daily use): particular a sustained
Chest Pain [6, 13]: Absence of Chest
symptoms of Irritable Bowel Syndrome [6, 13]: Markedly reduced
sustained improvement of symptoms ([6]; Example 4, person three, after four (4) months of daily use): 95% sustained
reduction in IBS and Acid Reflux Symptoms ([6]; Example 4, person three, within 72 hours): 90% reduction in
sustained improvement of symptoms ([6]; Example 4, person two, after seven (7) weeks of daily use): dramatic 95%
reduction in severity of Pre-Menstrual Cramps ([6]; Example 4, person two, within 72 hours): 70% reduction in
sustained improvement of all symptoms ([6]; Example 4, person, after five (5) weeks of daily use): 95% sustained
sustained improvement of symptoms ([6]; Example 4, person, after six (6) weeks of daily use): (95%) sustained
sustained improvement of symptoms ([6]; Example 4, after four (4) weeks of daily use): 95% sustained and 90% sustained
improvement in all symptoms and signs of fibromyalgia ([6]; Examples 2 and 3, single female patients, 35 mg orally twice daily, within 24 hours of starting treatment): vast improvement
reduction in the widespread pain ([6]; Examples 2 and 3, single female patients, within 24 hours): 95%
quality of life at follow-up [6, 14]: same marked improvement
relapse of symptoms [6, 14]: no relapse
energy levels [6, 15]: very significantly increased
mood [6, 15]: very improved
regularity of bowel habits [6, 15]: markedly improved
residual pain [6, 15]: minimal residual pain reported at the left hip; also recorded: residual mild headache
sleep patterns [6, 15]: very significantly improved
reduction in widespread pain ([6]; FMS patients, course of treatment of at least four weeks): remarkable and measurable reduction
sustained or improved relief of widespread pain at follow-up ([6]; all patients, follow-up at either four months or four weeks of treatment): 90-95%
improvement of minor symptoms ([6]; all patients, within 72 hours): significant improvement
improvement in widespread pain ([6]; eleven human subjects, each): remarkable improvement
reduction in widespread pain, and where applicable, tender point pain ([6]; eleven human subjects, each, within 72 hours of commencement of treatment): marked reduction
reduction in widespread pain, on average ([6]; eleven human subjects, within 72 hours of commencing treatment): 90%
